Reference: PubChem BioAssay (NCI)
Values joined by “and” are separate entries in the source; they are usually repeats but may differ in a detail not shown here. Identical values can stand only once.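 48-hour exposure; five concentrations; linearly interpolated endpoints. The concentration for 50% growth inhibition is given as GI50. The concentration for full growth arrest is given as TGI.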

Columns and labels:
Test in all cases: NCI-60 cell line screen, 48 h
786-0 renal = system: 786-0 renal
COLO 205 colon = system: COLO 205 colon
HOP-92 NSCLC = system: HOP-92 NSCLC
SF-295 CNS = system: SF-295 CNS
SK-MEL-5 melanoma = system: SK-MEL-5 melanoma
SN12C renal = system: SN12C renal
SW-620 colon = system: SW-620 colon
UO-31 renal = system: UO-31 renal
NCI-H226 lung = system: NCI-H226 lung
NCI-H460 lung = system: NCI-H460 lung

SMILES	TGI (786-0 renal) [µM]	TGI (COLO 205 colon) [µM]	TGI (HOP-92 NSCLC) [µM]	TGI (SF-295 CNS) [µM]	TGI (SK-MEL-5 melanoma)	TGI (SN12C renal) [µM]	TGI (SW-620 colon) [µM]	TGI (UO-31 renal) [µM]	GI50 (COLO 205 colon) [µM]	GI50 (HOP-92 NSCLC) [µM]	GI50 (NCI-H226 lung) [µM]	TGI (NCI-H226 lung) [µM]	GI50 (NCI-H460 lung) [µM]	TGI (NCI-H460 lung)	GI50 (SF-295 CNS) [µM]	GI50 (SK-MEL-5 melanoma) [µM]	GI50 (SN12C renal) [µM]	GI50 (UO-31 renal) [µM]	GI50 (786-0 renal) [µM]	GI50 (SW-620 colon) [µM]
CN(C(=O)C12C3C4C1C1C2C3C41C(=O)N(C)C(C)(C)C)C(C)(C)C (configuration not stated)	> 50	> 50	> 50	> 50	> 50 µM	> 50	> 50	> 50	–	–	–	–	–	–	–	–	–	–	–	–
CC[C@@]1(O)C(=O)OCc2c1cc1n(c2=O)Cc2cc3c(Cl)c4c(cc3nc2-1)OCO4	> 100	> 100	0.0801	–	0.0323 µM and 0.159 µM	–	> 100	–	1.05	< 0.001	< 0.001	0.0701	< 0.001	0.279 µM and 0.382 µM	< 0.001	< 0.001	< 0.001	< 0.001	–	–
CC1(C)C(=O)CCC(=O)C(C)(C)C2=CC=C(O2)C(C)(C)C(=O)CCC(=O)C(C)(C)C2=CC=C1O2	> 100	> 100	> 100	> 100	–	–	> 100	–	–	–	–	> 100	–	> 100 µM	–	–	–	–	–	–
COC(=O)c1c2c(c(C)[n+]([O-])c1C)C(=O)C=C(NCc1ccc(Br)cc1)C2=O	2.23	1.17	3.6	1.32	0.435 µM	1.74	1.71	2.44	0.322	1.74	1.3	2.98	0.431	1.99 µM	0.242	0.201	0.581	1.08	0.637	0.17
CC(=O)Nc1cc(C(c2ccccc2)c2ccccc2)cc(C(c2ccccc2)c2ccccc2)c1C	> 100	> 100	> 100	7.49	> 100 µM	> 100	> 100	> 100	7.36	4.68	6.8	> 100	7.49	> 100 µM	2.64	5.51	27.5	3.54	> 100	7.25
Cc1ccc(-c2c3c(N)nc(-c4ccncc4)nc3nc3c2c(C)nn3-c2ccccc2)cc1	> 37.5	> 37.5	22	> 37.5	> 37.5 µM	> 37.5	> 37.5	> 37.5	35.3	5.61	14	> 37.5	6.5	33.6 µM	> 37.5	10.2	2.58	> 37.5	12.4	9.99
CC(C)(C)C1CCP(=O)(c2ccccc2)CC1 (configuration not stated)	> 100	> 100	–	> 100	> 100 µM	> 100	> 100	> 100	–	–	–	> 100	–	> 100 µM	–	–	–	–	–	–
c1cc2ccc3cc2cc1CNCCOCCNCc1ccc2ccc(cc2c1)CNCCOCCNC3	> 100	> 100	–	> 100	> 100 µM	> 100	> 100	> 100	> 100	–	> 100	> 100	> 100	> 100 µM	> 100	> 100	> 100	> 100	> 100	> 100
COc1cc(-c2ccccc2)c(OC)cc1CCl	> 100	> 100	–	> 100	> 100 µM	> 100	> 100	> 100	–	–	–	> 100	–	> 100 µM	–	–	–	–	–	–
COc1cc(C2CC(=O)c3c(C)nn(-c4nc5ccccc5[nH]4)c3C2)cc(OC)c1OC (configuration not stated)	> 100	> 100	–	–	> 100 µM	–	> 100	–	> 100	–	–	–	–	–	–	> 100	–	–	3.34	> 100
Cc1ccc(C)c(NC(=O)/C(=N\N)C(c2cnc3ccc([N+](=O)[O-])cc3n2)[N+](=O)[O-])c1 (configuration not stated)	> 100	–	> 100	> 100	> 100 µM	> 100	> 100	> 100	–	–	–	> 100	–	> 100 µM	–	–	–	–	–	–
NC(=O)c1ccccc1NC(=O)C(=O)Nc1n[nH]c(N)n1	> 100	> 100	–	> 100	> 100 µM	> 100	> 100	> 100	–	–	–	> 100	–	> 100 µM	–	–	–	–	–	–
O=C(O)/C(=C/c1ccccc1[N+](=O)[O-])c1cccs1	> 100	> 100	–	> 100	> 100 µM	> 100	> 100	> 100	–	–	–	> 100	–	> 100 µM	–	–	–	–	–	–
Nc1nc2c(c(=O)[nH]1)N=C(COP(=O)(O)OP(=O)(O)O)CN2	> 100	> 100	–	> 100	> 100 µM	> 100	> 100	> 100	–	–	–	> 100	–	–	–	–	–	–	–	–
Cc1cn(C2CC(N=[N+]=[N-])C(CO)O2)c(=O)[nH]c1=O (configuration not stated)	> 1000	> 1000	> 1000	–	> 1000 µM	> 1000	> 1000	> 1000	433	> 1000	> 1000	> 1000	–	–	–	–	> 1000	> 1000	> 1000	> 1000
CC[C@@]1(OC(=O)C(N)CCC(=O)O)C(=O)OCc2c1cc1n(c2=O)Cc2cc3ccccc3nc2-1 (some centres not stated)	0.159	3.03	1.57	0.446	0.36 µM	1.34	> 21.1	0.746	–	–	–	0.192	–	–	–	–	–	–	–	–
Cc1no[n+]([O-])c1/C=N/NS(=O)(=O)c1ccccc1	> 100	> 100	> 100	–	> 100 µM	> 100	> 100	> 100	–	–	–	–	–	–	–	–	–	–	–	–
CC(=O)n1cc(CC(C)O)c(=O)[nH]c1=O (configuration not stated)	> 100	> 100	–	> 100	> 100 µM	31.2	> 100	> 100	–	–	–	> 100	–	> 100 µM	–	–	–	–	–	–

SMILES	TGI (786-0 renal) [µM]	TGI (COLO 205 colon) [µM]	TGI (HOP-92 NSCLC) [µM]	TGI (SF-295 CNS) [µM]	TGI (SK-MEL-5 melanoma)	TGI (SN12C renal) [µM]	TGI (SW-620 colon) [µM]	TGI (UO-31 renal) [µM]	GI50 (COLO 205 colon) [µM]	GI50 (HOP-92 NSCLC) [µM]	GI50 (NCI-H226 lung) [µM]	TGI (NCI-H226 lung) [µM]	GI50 (NCI-H460 lung) [µM]	TGI (NCI-H460 lung)	GI50 (SF-295 CNS) [µM]	GI50 (SK-MEL-5 melanoma) [µM]	GI50 (SN12C renal) [µM]	GI50 (UO-31 renal) [µM]	GI50 (786-0 renal) [µM]	GI50 (SW-620 colon) [µM]
CC(N)CN.CC(N)CN.[Cl-].[O]=[Os+2]=[O] (configuration not stated)	> 100	> 100	–	> 100	> 100 µM	> 100	> 100	> 100	70.2	–	> 100	> 100	> 100	> 100 µM	> 100	97.2	> 100	93.3	64.5	69
CN(C)CCCNC(=O)c1cccc2nc3ccccc3nc12	> 100	> 48.3	> 78.4	> 55.4	> 100 µM	> 100	> 54.9	> 71	–	–	–	39.1	–	–	–	–	–	–	–	–
COc1cc(-c2nccc3[nH]c(-c4cccc5[nH]ccc45)nc23)cc(OC)c1OC	2.92	< 0.01	19	–	0.0108 µM	18.1	5.13	16.2	< 0.01	< 0.01	4.06	22.5	< 0.01	1.11 µM	–	< 0.01	< 0.01	0.124	< 0.01	< 0.01
C=C(CS(=O)(=O)c1ccccc1)C(=O)OCC	31.9	38.9	40	32	–	31.1	29.2	35.4	–	–	–	58.1	–	35.4 µM	–	–	–	–	–	–
CC(C)(C)c1cc(Oc2ccc(C#N)c(C#N)c2)cc(C(C)(C)C)c1	> 100	> 100	> 100	> 100	> 100 µM	> 100	–	> 100	–	–	–	> 100	–	> 100 µM	–	–	–	–	–	–
CC(=O)NC1CCCN(O)C(=O)/C=C(/C)CCOC(=O)C(NC(C)=O)CCCN(O)C(=O)/C=C(/C)CCOC(=O)C(NC(C)=O)CCCN(O)C(=O)/C=C(/C)CCOC1=O.[Fe] (configuration not stated)	> 100	> 100	> 100	> 100	> 100 µM	> 100	> 100	> 100	> 100	> 100	–	–	> 100	> 100 µM	> 100	> 100	> 100	> 100	> 100	> 100
O=S(=O)(CC(O)C(Cl)(Cl)Cl)NNc1ccccc1 (configuration not stated)	> 100	> 100	> 100	> 100	> 100 µM	> 100	> 100	–	–	–	–	> 100	–	> 100 µM	–	–	–	–	–	–
C[N+](C)(C)CC(=O)N/N=C/c1oc(-c2cccc([N+](=O)[O-])c2)c(-c2cccc([N+](=O)[O-])c2)c1[N+](=O)[O-]	> 100	> 100	> 100	–	> 100 µM	> 100	> 100	> 100	–	–	–	–	–	> 100 µM	–	–	–	–	–	–
COc1ccc2oc(-c3cc4cc(OC)ccc4o3)cc2c1	> 100	> 100	> 100	> 100	> 100 µM	> 100	> 100	> 100	–	–	–	–	–	> 100 µM	–	–	–	–	–	–
O=c1[nH]cc(CO)c(=O)[nH]1	> 100	> 100	> 100	> 100	> 100 µM	> 100	> 100	> 100	> 100	> 100	–	–	> 100	> 100 µM	> 100	> 100	> 100	> 100	> 100	> 100
O=C(N/N=C/c1ccncc1)c1ccc(C(F)(F)F)nc1Nc1cccc(C(F)(F)F)c1	7.55	7.51	–	3.91	11.7 µM	11.5	12.8	10.2	2.57	–	2.65	11	2.84	10.4 µM	1.37	2.81	2.37	2.49	1.29	2.66
CCOc1ccc(/C=N\N2C(=O)c3ccccc3C2=O)cc1	> 100	–	> 100	> 100	> 100 µM	> 100	> 100	> 100	–	–	–	> 100	–	> 100 µM	–	–	–	–	–	–
O=Cc1c[nH]c2ccc(-c3csc4ccccc34)cc12	41.9	> 100	84.7	13.1	> 100 µM	–	> 100	> 100	4.46	7.06	3.7	> 100	3.46	> 100 µM	2.64	3.31	–	8.04	4.26	4.31
O=C(CCCCCNC1=CC(=O)c2ccccc2C1=O)NCCC[Te]c1ccccc1	4.17	1.36	1.65	0.686	2.67 µM	1.56	–	1.3	0.416	0.583	0.335	1.23	0.197	0.576 µM	0.248	1.37	0.331	0.311	2	–
Cc1cc(NS(=O)(=O)c2ccc(NC(=O)COc3ccc(-c4cc5ccccc5[nH]4)cc3)cc2)no1	3.65	3.27	3.83	4.91	6.84 µM	10.4	3.52	3.76	1.78	1.3	2.14	9.88	–	–	1.94	2.34	2.24	1.41	1.93	1.48
O=NNc1ccc(Sc2ccc3ccccc3c2)cn1	> 100	> 100	–	> 100	39.1 µM	> 100	> 100	> 100	–	–	–	> 100	–	> 100 µM	–	–	–	–	–	–
Cc1ccc(C2NC(=S)N3C(c4ccc(C)cc4)NC(=S)N23)cc1 (configuration not stated)	19.9	18.5	–	11.8	14.3 µM	19.4	17.9	28.2	6.07	–	6.85	29	3.82	13.1 µM	2.92	3.88	5.88	12	5.82	3.78
